Experimental data published in patent US9018208B2, “Heterocycles as potassium channel modulators” (Icagen Inc., priority 2007, dated 2015).

Each molecule was assayed on SH-SY5Y M-currents (KCNQ2, KCNQ3 and KCNQ5) (assay: SH-SY5Y native cell line FLIPR assay (voltage-sensitive dye DiBAC)). Conditions: FLIPR assay, SH-SY5Y native cell line; Table 2; read-out: SH-SY5Y EC50.
Type: cell-based, mouse neuroblastoma, rat glioma hybrid cell line
Outline: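 Response is peak DiBAC fluorescence change, normalised to the maximum from a positive control agent, sampled every 30 s over 25 min. Before compound addition, SH-SY5Y cells differentiated with PGE1 plus isomethylbutylxanthine were dye-loaded for 1 h in EBSS with […] DiBAC.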
For `O=C(Cc1ccc(F)cc1)Nc1nc2ccc(C(F)(F)F)cn2c1-c1ccc(F)cc1` [Compound 121, 2-(4-fluorophenyl)-N-(3-(4-fluorophenyl)-6-(trifluoromethyl)imidazo[1,2-a]pyridin-2-yl)acetamide], the EC50 was under 0.5 µM. `O=C(Cc1ccc(F)cc1)Nc1nc2cc(C(F)(F)F)ccn2c1-c1ccc(F)cc1F` [Compound 122, N-(3-(2,4-difluorophenyl)-7-(trifluoromethyl)imidazo[1,2-a]pyridin-2-yl)-2-(4-fluorophenyl)acetamide] showed an EC50 of 0.5 to 3 µM. `CC(C)(C)CC(=O)Nc1nc2cc(C(F)(F)F)ccn2c1-c1ccc(F)cc1F` [Compound 123, N-(3-(2,4-difluorophenyl)-7-(trifluoromethyl)imidazo[1,2-a]pyridin-2-yl)-3,3-dimethylbutanamide] showed an EC50 of 0.5 to 3 µM. Work on `O=C(Cc1ccccc1)Nc1nc2cc(C(F)(F)F)ccn2c1-c1ccc(F)cc1F` [Compound 124, N-(3-(2,4-difluorophenyl)-7-(trifluoromethyl)imidazo[1,2-a]pyridin-2-yl)-2-phenyl acetamide] yielded an EC50 of 0.5 to 3 µM. Molecule `O=C(CC1CCCC1)Nc1nc2cc(C(F)(F)F)ccn2c1-c1ccc(F)cc1F` [Compound 125, 2-cyclopentyl-N-(3-(2,4-difluorophenyl)-7-(trifluoromethyl)imidazo[1,2-a]pyridin-2-yl)acetamide] has an EC50 of 0.5 to 3 µM. Work on `O=C(Cc1ccc(F)cc1)Nc1nc2ccc(F)cn2c1-c1ccc(C(F)(F)F)cc1` [Compound 126, N-(6-fluoro-3-(4-(trifluoromethyl)phenyl)imidazo[1,2-a]pyridin-2-yl)-2-(4-fluorophenyl)acetamide] yielded an EC50 of 0.5 to 3 µM. Molecule `O=C(Cc1ccccc1)Nc1nc2ccc(F)cn2c1-c1ccc(C(F)(F)F)cc1` [Compound 127, N-(6-fluoro-3-(4-(trifluoromethyl)phenyl)imidazo[1,2-a]pyridin-2-yl)-2-phenylacetamide] has an EC50 of under 0.5 µM. For `O=C(CC1CC1)Nc1nc2ccc(F)cn2c1-c1ccc(F)cc1` [Compound 129, 2-cyclopropyl-N-(6-fluoro-3-(4-fluorophenyl)imidazo[1,2-a]pyridin-2-yl)acetamide], the EC50 was 3 to 10 µM. With `CC(C)(C)CC(=O)Nc1nc2ccc(Cl)cn2c1-c1ccc(F)cc1` [Compound 130, N-(6-chloro-3-(4-fluorophenyl)imidazo[1,2-a]pyridin-2-yl)-3,3-dimethylbutanamide] the EC50 was under 0.5 µM. With `O=C(Cc1ccc(F)cc1)Nc1nc2ccc(Cl)cn2c1-c1ccc(F)cc1` [Compound 131, N-(6-chloro-3-(4-fluorophenyl)imidazo[1,2-a]pyridin-2-yl)-2-(4-fluorophenyl)acetamide] the EC50 was under 0.5 µM. `COc1ccc(CC(=O)Nc2nc3ccc(F)cn3c2-c2ccc(F)cc2)cc1` [Compound 132, N-(6-fluoro-3-(4-fluorophenyl)imidazo[1,2-a]pyridin-2-yl)-2-(4-methoxyphenyl)acetamide] gave an EC50 of 0.5 to 3 µM. Work on `CC(C)CC(=O)Nc1nc2ccc(F)cn2c1-c1ccc(F)cc1` [Compound 133, N-(6-fluoro-3-(4-fluorophenyl)imidazo[1,2-a]pyridin-2-yl)-3-methylbutanamide] yielded an EC50 of 0.5 to 3 µM. Work on `O=C(CCc1ccccc1)Nc1nc2ccc(F)cn2c1-c1ccc(F)cc1` [Compound 134, N-(6-fluoro-3-(4-fluorophenyl)imidazo[1,2-a]pyridin-2-yl)-3-phenylpropanamide] yielded an EC50 of 0.5 to 3 µM. In the case of `O=C(Cc1ccc(C(F)(F)F)cc1)Nc1nc2ccc(F)cn2c1-c1ccc(F)cc1` [Compound 135, N-(6-fluoro-3-(4-fluorophenyl)imidazo[1,2-a]pyridin-2-yl)-2-(4-(trifluoromethyl)phenyl)acetamide], the EC50 is reported as 0.5 to 3 µM. `O=C(Cc1ccc(F)cc1F)Nc1nc2ccc(F)cn2c1-c1ccc(F)cc1` [Compound 136, 2-(2,4-difluorophenyl)-N-(6-fluoro-3-(4-fluorophenyl)imidazo[1,2-a]pyridin-2-yl)acetamide] was tested, and the EC50 was 0.5 to 3 µM. `N#Cc1ccc(CC(=O)Nc2nc3ccc(F)cn3c2-c2ccc(F)cc2)cc1` [Compound 137, 2-(4-cyanophenyl)-N-(6-fluoro-3-(4-fluorophenyl)imidazo[1,2-a]pyridin-2-yl)acetamide] was tested, and the EC50 was 0.5 to 3 µM. With `O=C(CC1CC2CCC1C2)Nc1nc2ccc(F)cn2c1-c1ccc(F)cc1` (centres unmarked) [Compound 138, 2-(bicyclo[2.2.1]heptan-2-yl)-N-(6-fluoro-3-(4-fluorophenyl)imidazo[1,2-a]pyridin-2-yl)acetamide] the EC50 was under 0.5 µM. `CC(CC(=O)Nc1nc2ccc(F)cn2c1-c1ccc(F)cc1)CC(C)(C)C` (centres unmarked) [Compound 139, N-(6-fluoro-3-(4-fluorophenyl)imidazo[1,2-a]pyridin-2-yl)-3,5,5-trimethylhexanamide] gave an EC50 of under 0.5 µM. Molecule `O=C(Cc1ccc(F)cc1Cl)Nc1nc2ccc(F)cn2c1-c1ccc(F)cc1` [Compound 140, 2-(2-chloro-4-fluorophenyl)-N-(6-fluoro-3-(4-fluorophenyl)imidazo[1,2-a]pyridin-2-yl)acetamide] has an EC50 of 3 to 10 µM. Work on `O=C(Cc1c(F)cccc1Cl)Nc1nc2ccc(F)cn2c1-c1ccc(F)cc1` [Compound 141, 2-(2-chloro-6-fluorophenyl)-N-(6-fluoro-3-(4-fluorophenyl)imidazo[1,2-a]pyridin-2-yl)acetamide] yielded an EC50 of 3 to 10 µM. For `Cc1ccc(CC(=O)Nc2nc3ccc(F)cn3c2-c2ccc(F)cc2)cc1` [Compound 143, N-(6-fluoro-3-(4-fluorophenyl)imidazo[1,2-a]pyridin-2-yl)-2-p-tolylacetamide], the EC50 was under 0.5 µM. `CC(CC(=O)Nc1nc2ccc(F)cn2c1-c1ccc(F)cc1)C(F)(F)F` (centres unmarked) [Compound 144, 4,4,4-trifluoro-N-(6-fluoro-3-(4-fluorophenyl)imidazo[1,2-a]pyridin-2-yl)-3-methylbutanamide] showed an EC50 of 0.5 to 3 µM. Molecule `O=C(Cc1ccc(Cl)cc1)Nc1nc2ccc(F)cn2c1-c1ccc(F)cc1` [Compound 145, 2-(4-chlorophenyl)-N-(6-fluoro-3-(4-fluorophenyl)imidazo[1,2-a]pyridin-2-yl)acetamide] has an EC50 of 0.5 to 3 µM. `O=C(Nc1nc2ccc(F)cn2c1-c1ccc(F)cc1)OCc1ccccc1` [Compound 146, benzyl 6-fluoro-3-(4-fluorophenyl)imidazo[1,2-a]pyridin-2-ylcarbamate] was tested, and the EC50 was under 0.5 µM. `CCC(C)CC(=O)Nc1nc2ccc(F)cn2c1-c1ccc(F)cc1` (centres unmarked) [Compound 147, N-(6-fluoro-3-(4-fluorophenyl)imidazo[1,2-a]pyridin-2-yl)-3-methylpentanamide] gave an EC50 of 0.5 to 3 µM. Molecule `O=C(Cc1ccc(F)cc1)Nc1nc2ccc(F)cn2c1-c1cccc(Cl)c1` [Compound 148, N-(3-(3-chlorophenyl)-6-fluoroimidazo[1,2-a]pyridin-2-yl)-2-(4-fluorophenyl)acetamide] has an EC50 of under 0.5 µM. For `CC(C)(C)CC(=O)Nc1nc2ccc(F)cn2c1-c1cccc(Cl)c1` [Compound 149, N-(3-(3-chlorophenyl)-6-fluoroimidazo[1,2-a]pyridin-2-yl)-3,3-dimethylbutanamide], the EC50 was under 0.5 µM. `CC(C)(C)CC(=O)Nc1nc2ccc(F)cn2c1-c1ccc(Cl)cc1` [Compound 150, N-(3-(4-chlorophenyl)-6-fluoroimidazo[1,2-a]pyridin-2-yl)-3,3-dimethylbutanamide] was tested, and the EC50 was under 0.5 µM. `C#CCCCC(=O)Nc1nc2ccc(F)cn2c1-c1ccc(F)cc1` [Compound 151, N-(6-fluoro-3-(4-fluorophenyl)imidazo[1,2-a]pyridin-2-yl)hex-5-ynamide] was tested, and the EC50 was 0.5 to 3 µM.
